Data as given in ChEMBL document CHEMBL1221187, “Histone deacetylase inhibitors reverse gene silencing in Friedreich's ataxia” (Nat Chem Biol, 2006).
Calls of active or inactive are those of the source. The calls are words filed in the database; no cut-off is given here.

Tests used:
[1] = system: GM15850; assay: Increase in FXN mRNA expression in human GM15850 cells at 5 uM after 96 hrs by qRT-PCR analysis relative to control; assay type: functional
[2] = target: Histone deacetylase; assay: Inhibition of HDAC in human HeLa cell extract by fluorescence plate reader assay; assay type: cell-free
[3] = Cytotoxicity against human GM15850 cells at 5 uM after 96 hrs by trypan blue exclusion assay; assay type: cell-based; conditions: gm15850, 96 h
[4] = target: T1, Histone deacetylase (Homo sapiens) (UniProt Q13547+O15379+Q9UBN7+Q92769+Q9UQL6+Q8WUI4+Q9BY41+Q96DB2+P56524+Q9UKV0+Q969S8); assay: Inhibition of HDAC in human GM15850 cells assessed as increase in total acetylated histone level at 400 uM after 12 hrs by Western blot analysis; assay type: cell-based
[5] = system: Lymphocyte; assay: Increase in FXN mRNA expression in lymphocytes isolated from patient with Friedreich's ataxia at 10 uM after 48 hrs by qRT-PCR analysis; assay type: functional, cell-based; conditions: Homo sapiens
[6] = system: GM15850; assay: Increase in FXN mRNA expression in human GM15850 cells at 10 uM after 96 hrs by qRT-PCR analysis relative to control; assay type: functional
[7] = system: Lymphocyte; assay: Increase in FXN mRNA expression in lymphocytes isolated from patient with Friedreich's ataxia at 10 uM after 48 hrs by qRT-PCR analysis relative to mRNA level in healthy human lymphocytes; assay type: functional
[8] = target: T1, Histone deacetylase (Homo sapiens); assay: Inhibition of HDAC in human GM15850 cells assessed as increase in histone H4 lysine 12 acetylation of FXN gene at 5 uM after 96 hrs by chromatin immunoprecipitation assay; assay type: cell-based
[9] = system: Lymphocyte; assay: Increase in FXN mRNA expression in lymphocytes isolated from patient with Friedreich's ataxia at 5 uM after 48 hrs by qRT-PCR analysis relative to mRNA level in healthy human lymphocytes; assay type: functional
[10] = target: T1, Histone deacetylase (Homo sapiens); assay: Inhibition of HDAC in human GM15850 cells assessed as increase in histone H3 lysine 14 acetylation of FXN gene at 5 uM after 96 hrs by chromatin immunoprecipitation assay; assay type: cell-based
[11] = system: Lymphocyte; assay: Increase in FXN mRNA expression in healthy human lymphocytes at 5 uM after 48 hrs by qRT-PCR analysis; assay type: functional
[12] = target: T1, Histone deacetylase (Homo sapiens); assay: Inhibition of HDAC in human GM15850 cells assessed as increase in histone H4 lysine 5 acetylation of FXN gene at 5 uM after 96 hrs by chromatin immunoprecipitation assay; assay type: cell-based
[13] = system: Lymphocyte; assay: Increase in FXN mRNA expression in lymphocytes isolated from patient with Friedreich's ataxia at 5 uM after 48 hrs by qRT-PCR analysis; assay type: functional, Homo sapiens
[14] = system: Lymphocyte; assay: Increase in FXN mRNA expression in lymphocytes isolated from patient with Friedreich's ataxia at 5 uM after 48 hrs by qRT-PCR analysis relative to control; assay type: functional, Homo sapiens
[15] = target: T1, Histone deacetylase (Homo sapiens); assay: Inhibition of HDAC in human GM15850 cells assessed as increase in histone H4 lysine 8 acetylation of FXN gene at 5 uM after 96 hrs by chromatin immunoprecipitation assay; assay type: cell-based
[16] = target: T1, Histone deacetylase (Homo sapiens); assay: Inhibition of HDAC in human GM15850 cells assessed as increase in histone H4 lysine 16 acetylation of FXN gene at 5 uM after 96 hrs by chromatin immunoprecipitation assay; assay type: cell-based
[17] = system: Lymphocyte; assay: Increase in FXN mRNA expression in lymphocytes isolated from patient with Friedreich's ataxia at 2.5 to 7.5 uM after 48 hrs by qRT-PCR analysis; assay type: functional, cell-based; conditions: Homo sapiens
[18] = target: T1, Histone deacetylase (Homo sapiens); assay: Inhibition of HDAC in human GM15850 cells assessed as increase in histone H3 lysine 9 acetylation of FXN gene at 5 uM after 96 hrs by chromatin immunoprecipitation assay; assay type: cell-based
[19] = system: Lymphocyte; assay: Increase in FXN mRNA expression in lymphocytes isolated from patient with Friedreich's ataxia at 2.5 uM after 48 hrs by qRT-PCR analysis; assay type: functional, Homo sapiens
[20] = Cytotoxicity against lymphocytes isolated from patient with Friedreich's ataxia at 2.5 to 5 uM after 48 hrs by trypan blue exclusion assay; assay type: cell-based; conditions: human, lymphocyte
[21] = system: Lymphocyte; assay: Effect on FXN mRNA expression in healthy human lymphocytes at 2.5 uM after 48 hrs by qRT-PCR analysis; assay type: functional, cell-based
[22] = system: GM15850; assay: Increase in frataxin protein level in human GM15850 cells at 2.5 uM after 4 days by SDS-PAGE relative to control; assay type: functional
[23] = system: GM15850; assay: Increase in frataxin protein level in human GM15850 cells at 5 uM after 4 days by SDS-PAGE relative to control; assay type: functional
[24] = Cytotoxicity against human GM15850 cells at 5 uM after 12 hrs by trypan blue exclusion assay; assay type: cell-based; conditions: gm15850, 12 h
[25] = system: GM15850; assay: Increase in FXN mRNA expression in human GM15850 cells at 5 uM after 12 hrs by qRT-PCR analysis relative to control; assay type: functional
[26] = system: GM15850; assay: Effect on FXN mRNA expression in human GM15850 cells at 5 uM after 12 hrs by qRT-PCR analysis; assay type: functional, cell-based
[27] = Decrease in FXN mRNA expression in human GM15850 cells at 5 uM after 12 hrs by qRT-PCR analysis; assay type: functional, cell-based

Row | Compound | fold change (FC) [1] | IC50 [2] | Activity [3] | further results
1 | COc1ccccc1NC(=O)CCCCCC(=O)Nc1ccccc1 | 2.3 | 54 µM | Non-toxic | 
2 | COc1ccccc1NC(=O)CCCCCCC(=O)Nc1ccccc1 | 1.8 | 470 µM | Non-toxic | 
3 | O=C(CCCCCC(=O)Nc1ccccn1)Nc1ccccc1 | 2.6 | 140 µM | Non-toxic | 
4 | COc1ccc(NC(=O)CCCCCC(=O)Nc2ccccc2)cc1 | 2.5 | 438 µM | Non-toxic | 
5 | CCCC(CCC)C(=O)O [VALPROIC ACID] |  |  | Non-toxic | inhibition [4]: Active
6 | Nc1ccc(NC(=O)CCCCCC(=O)Nc2ccccc2)cc1 | 2.6 | 123 µM | Non-toxic | Activity [5]: inactive
7 | Nc1cccc(NC(=O)CCCCCCC(=O)Nc2ccccc2)c1 | 2.1 | 85 µM | Non-toxic | 
8 | Nc1ccc(NC(=O)CCCCCCC(=O)Nc2ccccc2)cc1 | 2 | 186 µM | Non-toxic | 
9 | O=C(CCCCCC(=O)Nc1ccccc1)Nc1ccccc1 |  |  | Non-toxic | 
10 | COc1ccc(NC(=O)CCCCCC(=O)Nc2ccccc2)c(OC)c1 | 1.5 | 387 µM | Non-toxic | 
11 | Nc1ccccc1NC(=O)CCCCCC(=O)Nc1ccccc1N | 3.1 | 14 µM | Non-toxic | fold change (FC) [6]: 3.5; Activity [5]: Active
12 | Nc1ccccc1NC(=O)CCCCCC(=O)Nc1ccccc1 | 2.5 | 78 µM | Non-toxic | Activity [7]: 160%; Activity [8]: Active; Activity [9]: 80%; Activity [10]: Active; Activity [11]: 38%; Activity [12]: Active; Activity [13]: 130%; fold change (FC) [14]: 2.3; Activity [15]: inactive; Activity [16]: inactive; Activity [17]: Active; Activity [18]: inactive; Activity [19]: 33%; Activity [20]: Non-toxic; Activity [21]: inactive; fold change (FC) [22]: 3
13 | Nc1ccccc1NC(=O)CCCCCC(=O)Nc1ccccn1 | 2.4 | 91 µM | Non-toxic | Activity [5]: Active
14 | O=C(CCCCCC(=O)Nc1cnc2ccccc2c1)Nc1ccccc1 | 2.5 | 84 µM | Non-toxic | 
15 | O=C(CCCCCCC(=O)Nc1ccccn1)Nc1ccccc1 | 2 | 99 µM | Non-toxic | Activity [5]: inactive
16 | Nc1ccccc1NC(=O)CCCCC(=O)Nc1ccccc1 | 1.4 | 238 µM | Non-toxic | 
17 | COc1cccc(NC(=O)CCCCCC(=O)Nc2ccccc2)c1 | 1.8 | > 1 µM | Non-toxic | 
18 | Nc1ccccc1NC(=O)CCCCCCC(=O)Nc1ccccc1 | 1.4 | 87 µM | Non-toxic | fold change (FC) [23]: 3; Activity [11]: inactive; Activity [13]: 80%; fold change (FC) [14]: 1.8; Activity [24]: Non-toxic; Activity [19]: 33%; fold change (FC) [25]: 2; Activity [20]: Non-toxic; Activity [21]: inactive
19 | CC(/C=C/C(=O)NO)=C\[C@@H](C)C(=O)c1ccc(N(C)C)cc1 [TRICHOSTATIN] |  |  | Toxic | 
20 | O=C(CCCCCC(=O)Nc1cccc2cccnc12)Nc1ccccc1 | 3 | 17 µM | Non-toxic | 
21 | Nc1cccc(NC(=O)CCCCCC(=O)Nc2ccccc2)c1 | 1.5 | 500 µM | Non-toxic | 
22 | O=C(CCCCCCC(=O)Nc1ccccc1)NO [VORINOSTAT] |  |  | Toxic | Activity [26]: inactive
23 | O=C(CCCCCCC(=O)NO)NO [SUBEROHYDROXAMIC ACID] |  |  | Non-toxic | inhibition [27]: 50%
